Reference: US8283322B2, “Formulations for nonsurgical exogenous crosslink therapy” (Orthopeutics, LP, priority 2008, dated 2012)
≈ marks a conversion by molar mass, not a printed value.

How the values were obtained:
[1] = system: annulus fibrosus specimens from bovine lumbar intervertebral discs; assay: Tear resistance of annulus fibrosus (radial tear propagation); conditions: soaked two days in 0.15M PBS plus 0.33% genipin
Excerpt: Ten annulus fibrosus circumferentially aligned specimens from bovine lumbar (T12-L5) intervertebral discs were divided into two groups and either soaked two days in a 0.15M PBS or a 0.15M PBS plus 0.33% genipin solution. A custom loading fixture attached to a uniaxial materials testing system was designed to hold an annulus specimen perpendicular to the travel of a metal cylinder placed in a pre-existing radial cut. The cylinder was then pulled radially (perpendicular to lamellae) towards the external layer. Time dependent force and displacement data was acquired simultaneously. Tearing resistance was quantified in two ways: peak force normalized by specimen thickness and tearing energy per area of tear. Differences between groups were analyzed using the Mann-Whitney non-parametric test.

calf lumbar spinal discs = assay: Diffusion study in calf lumbar spinal discs (area of diffusion zone, ImageJ); conditions: 0.1% (w/v) SDS in PBS, 1 hr, 37° C.; p=0.021
Description: FIG. 12—Diffusion kinetics of genipin and BSA in calf lumbar spinal discs. 200 μl of 0.33% (w/v) or 1 mg/ml BSA-Texas Red were injected at a depth of 1 cm into the discs of individual calf lumbar motion segments and incubated for 1, 3 or 6 hours at 37° C. Samples were transected and the area of each diffusion zone at each time point and for each reagent was determined from photographs using ImageJ software.
FIG. 13—Effect of surfactants on the diffusion of GP and BSA-TR. 200 μl of 0.33% (w/v) or 1 mg/ml BSA-Texas Red formulated in PBS in the absence of presence of 0.1% (w/v) of either Tween-20 or SDS were injected at a depth of 1 cm into the discs of individual calf lumbar motion segments. Segments were incubated for 1 hr at 37° C. and the samples were then transected and the area of each diffusion zone determined from photographs using ImageJ software.
In order to observe the diffusion kinetics of these markers, GP (0.33% (w/v)) or BSA-TR (1 mg/ml) were dissolved in PBS and 200 μl injected at a depth of 1 cm into the discs of individual calf lumbar motion segments and incubated at 37° C. for 1, 3 or 6 hrs in sealed ZipLoc bags containing a sheet of paper towel moistened with H2O. […] In some cases, however, diffusion zones merged and were not possible to quantify and in subsequent experiments injections were limited to the left and right lateral regions. […]

physchem [2] = assay type: physicochemical
Excerpt: In the case of crosslinking agents that are not very water-soluble, additional reagents may be required to maintain the solubility of the crosslinking agent. Such reagents should be miscible with water and function to increase the solubility of the crosslinking agent by reducing the hydrophilicity of the aqueous medium. […] At the upper limit, GP was soluble in 100% DMSO to a level of 2.6M. […] Thus manipulation of the buffer concentration and the addition of co-solvents allows for the manipulation of the crosslinking reagent concentration to the desired level. The values were all determined at ambient room temperature. Crosslinker solubility could also be increased by increasing the temperature of the solvent.

physchem [3] = assay type: physicochemical; conditions: for half-life: buffer
Excerpt: In the case of the crosslinking agent genipin (GP), using a quantitative HPLC assay, the inventors have shown that the agent is unstable in aqueous solution. The rate of degradation can be very rapid and is dependent on pH. […] In all cases this instability is not suitable for long term storage of a genipin-containing crosslinking agent at ambient temperature. […] The inventors have also shown that GP is stable as a powder for at least 1 year. These observations have consequences for the manufacture and/or final form of a crosslinking reagent containing GP, i.e., the GP would have to be stored either in powdered form or in a suitable non-aqueous, water-miscible solvent. The solvent could be, but is not limited to, ethanol, methanol, propanol, acetonitrile or dimethyl sulfoxide.

[4] = system: homogenized annulus tissue; conditions: bovine
Description: (§1) Increasing concentrations of protein crosslinkers were added to homogenized annulus tissue and incubated for either 1 hr (EDC, GP, MG, PA and GA), 2 hrs (TG) or 6 hrs (DT and LT). Crosslinking was quantified by determining the amount of hydroxyproline (HYP) released from the tissue by collagenase digestion.
(§2) Homogenized annulus tissue was treated with sub-saturating concentrations of various crosslinkers at varying pH and incubated for either 1 hr (EDC, GP, MG, PA and GA), 2 hrs (TG) or 6 hrs (LT). Crosslinking was quantified by determining the amount of hydroxyproline (HYP) released from the tissue by collagenase digestion.
(§3) In order to determine the effective concentration range for various crosslinking reagents we incubated samples of annulus tissue in increasing concentrations of either genipin (GP), methylglyoxal (MG), proanthrocyanidin (PA), L-threose (LT), D-threose (DT), dimethylaminopropyl) carbodiimide hydrochloride (EDC) or transglutaminase (TG). Crosslinking efficiency was measured indirectly by monitoring the release of peptides containing hydroxyproline upon subsequent digestion with collagenase. Glutaraldehyde (GA), a commonly used, but highly toxic protein crosslinker was used as a positive control.
(§4) To test this hypothesis, the inventors subjected calf annulus fibrosus tissue to crosslinking with sub-saturating levels of our reagents at varying pH. In order to maintain optimal buffering capacity at each pH, different buffers were selected for each point.

[5] = system: homogenized annulus tissue; assay: Crosslinking of annulus tissue quantified by hydroxyproline release upon collagenase digestion
Description: as §1, §2, §3, §4

With `COC(=O)C1=CO[C@@H](O)[C@@H]2C(CO)=CC[C@H]12` [Genipin, genipin] the “Total energy per area of tear” value ([1]; p=0.047 vs control) was 40.2 mJ/mm^2, the Normalized peak force ([1]; p=0.076 vs control) was 42.7 N/mm and the “enhancement of diffusion by SDS” value (calf lumbar spinal discs) was “approximately 30%”. For the same molecule, the solubility (physchem [2]; aqueous buffer) was 60.4 mM (≈ 13.7 mg/mL), the solubility (physchem [2]; aqueous with cosolvent or surfactant or cyclodextrin) was 74.6 mM (≈ 16.9 mg/mL) and the solubility (physchem [2]; organic solvent or mixture) was 2600 mM (≈ 588 mg/mL). For the same molecule, the solubility (physchem [2]; pH 9, aqueous buffer) was 39.6 mM (≈ 8.96 mg/mL), the solubility (physchem [2]; pH 9, aqueous with cosolvent or surfactant or cyclodextrin) was 63.3 mM (≈ 14.3 mg/mL) and the “degradation in non-aqueous solvents” value (physchem [3]) was “no GP degradation was detected”. The “stability as a powder” value (physchem [3]) was “at least 1 year”, the half-life (physchem [3]; pH 4) was 8.92 days and the half-life (physchem [3]; pH 5) was 9.12 days. The half-life (physchem [3]; pH 6) was 5.62 days, the half-life (physchem [3]; pH 7) was 2.5 days and the half-life (physchem [3]; pH 8) was 0.75 days. The half-life (physchem [3]; pH 9) was 0.117 days, the T1/2 [4] was 10 to 18 min and the “effect of buffer (EPPS vs Tris) on crosslinking” value ([5]; 100 mM EPPS or 100 mM Tris, GP at pH 9) was “more effective in EPPS buffer than in Tris”. For the same molecule, the “effect of phosphate on crosslinking” value ([5]; Tris buffer pH 8, increasing concentrations of sodium phosphate) was “dose-dependent enhancement”, the pH ([5]; optimized pH for crosslinking, Table 5) was 8-9 and the “[Saturating]” value ([5]; saturating crosslinker concentration, Table 5) was 5 to 10 mM. For the same molecule, the “pH dependence of crosslinking” value ([5]; sub-saturating crosslinker, pH 4-9 with a different buffer at each pH (FIG. 2, FIG. 3)) was “function better in disc tissue at the higher pH levels”.
